Laboratory results published in ChEMBL document CHEMBL3603840, “Discovery of non-competitive thrombin inhibitor derived from competitive tryptase inhibitor skeleton: Shift in molecular recognition resulted from skeletal conversion of carboxylate into phosphonate” (Bioorg Med Chem Lett, 2015).
Activity calls are given as the source filed them. The calls are words filed in the database; no cut-off is given here.

What was measured:
Prothrombin [1] = target: T1, Prothrombin (Homo sapiens, UniProt P00734); assay: Inhibition of thrombin (unknown origin) using t-Boc-Val-Pro-Arg-MCA as substrate at 10 uM after 5 mins by fluorimetric analysis
Tryptase [2] = target: T2, Tryptase (Homo sapiens, UniProt Q9BZJ3+Q15661+Q9NRR2); assay: Inhibition of tryptase (unknown origin) using t-Boc-Phe-Ser-Arg-MCA as substrate at 10 uM after 5 mins by fluorimetric analysis; type: protein assay
Trypsin [3] = target: T3, Trypsin (Homo sapiens, UniProt P07477+P07478+P35030); assay: Inhibition of trypsin (unknown origin) using Bz-Arg-pNA.HCl as substrate at 10 uM after 5 mins by colorimetric analysis; type: protein assay
Prothrombin [4] = target: T1, Prothrombin; assay: Non-competitive inhibition of thrombin (unknown origin) using t-Boc-Val-Pro-Arg-MCA as substrate by Lineweaver-Burk plot analysis
Prothrombin [5] = target: T1, Prothrombin; assay: Inhibition of thrombin (unknown origin) using t-Boc-Val-Pro-Arg-MCA as substrate after 5 mins by fluorimetric analysis
Prothrombin [6] = target: T1, Prothrombin; assay: Competitive inhibition of thrombin (unknown origin) using t-Boc-Val-Pro-Arg-MCA as substrate by Lineweaver-Burk plot analysis
Trypsin [7] = target: T3, Trypsin; assay: Inhibition of trypsin (unknown origin) using Bz-Arg-pNA.HCl as substrate after 5 mins by colorimetric analysis; type: protein assay
Tryptase [8] = target: T2, Tryptase; assay: Inhibition of tryptase (unknown origin) using t-Boc-Phe-Ser-Arg-MCA as substrate after 5 mins by fluorimetric analysis; type: protein assay

IC50 (Prothrombin [5]) [µM]	inhibition (Prothrombin [6])	IC50 (Trypsin [7]) [µM]	IC50 (Tryptase [8]) [µM]	Structure (SMILES)	inhibition (Prothrombin [1])	inhibition (Tryptase [2])	inhibition (Trypsin [3])	inhibition (Prothrombin [4])
				CCOP(=O)(CCc1ccc(N)nc1)Oc1ccc2c(c1)C(=O)N(C)C2=O (stereo not given)	95%	11%	inactive	inactive
				CN1C(=O)c2ccc(NC(CCc3ccc(N)nc3)P(=O)(Oc3ccccc3)Oc3ccccc3)cc2C1=O (stereo not given)	inactive	inactive	inactive	
				CCOP(=O)(Cc1ccc(N)nc1)Oc1ccc2c(c1)C(=O)N(C)C2=O (stereo not given)	59%	5.3%	inactive	
				CC(C)N1C(=O)c2ccc(NC(CCc3ccc(N)nc3)P(=O)(Oc3ccccc3)Oc3ccccc3)cc2C1=O (stereo not given)	inactive	inactive	inactive	
5.3	Active	1.2	0.19	CN1C(=O)c2ccc(OC(=O)CCc3ccc(N)nc3)cc2C1=O.Cl	70%	98%	97%	
